In ChEMBL document CHEMBL1143306, “3-amido-4-anilinoquinolines as CSF-1R kinase inhibitors 2: Optimization of the PK profile” (Bioorg Med Chem Lett, 2009):
≈ marks a conversion by molar mass, not a printed value.

Columns and labels:
NIH3T3 = experiment: Antiproliferative activity against mouse 3T3 cells expressing human CSF1R after 72 hrs by Celltiter assay; format: functional
[1] = Aqueous solubility of the compound; format: physicochemical; conditions: buffer
[2] = Plasma protein binding assessed as percentage unbound
[3] = Bioavailability in rat at 3 mg/kg, iv and 10 mg/kg, po; format: ADME, organism-based; conditions: in vivo
[4] = Clearance in rat at 3 mg/kg, iv and 10 mg/kg, po; format: ADME, organism-based; conditions: in vivo
[5] = Volume of distribution at steady state in rat at 3 mg/kg, iv and 10 mg/kg, po; format: ADME, organism-based; conditions: in vivo, read-out: Vdss
[6] = Half life in rat at 3 mg/kg, iv and 10 mg/kg, po; format: ADME, organism-based; conditions: in vivo
Mus musculus [7] = experiment: Inhibition of phosphorylated CSF1R level in 3T3/CSF1R mutant cells xenografted nude mouse at 25 mg/kg, po after 2 hrs by ELISA; format: functional
Mus musculus [8] = experiment: Inhibition of phosphorylated CSF1R level in 3T3/CSF1R mutant cells xenografted nude mouse at 25 mg/kg, po after 6 hrs by ELISA; format: functional

Compound | solubility [1] | fraction unbound [2] | bioavailability [3] | clearance [4] | Vd [5] | half-life [6] | Activity (NIH3T3) | inhibition in vivo at 25 mg/kg (Mus musculus [7]) | inhibition in vivo at 25 mg/kg (Mus musculus [8])
COCCOc1cc2ncc(C(N)=O)c(Nc3cccc(Cl)c3Cl)c2cc1N1CCN(C)CC1 | 380 µM (≈ 192 µg/mL) | 0.1 | 32% | 290 mL/min/kg | 21 L/kg | 0.83 h | 0.01 µM | 100% | 80%
COCCOc1cc2ncc(C(N)=O)c(Nc3cc(C)ccc3F)c2cc1N1CCN(C)CC1 |  | 0.16 | 45% | 60 mL/min/kg | 4.7 L/kg | 4.2 h | 0.17 µM | 85% | 70%
COc1cc2ncc(C(N)=O)c(Nc3ccc(Cl)c(Cl)c3)c2cc1N1CCN(C)CC1 |  | 0.036 |  | 50 mL/min/kg | 3.8 L/kg | 1.2 h | 0.38 µM |  | 
CCOc1cc2ncc(C(N)=O)c(Nc3cccc(Cl)c3Cl)c2cc1N1CCN(C(C)C)CC1 | 250 µM (≈ 126 µg/mL) | 0.015 | 66% | 120 mL/min/kg | 11 L/kg | 1.2 h | 0.02 µM | 85% | 65%
COCCOc1cc2ncc(C(N)=O)c(Nc3cccc(Cl)c3F)c2cc1N1CCN(C)CC1 | 910 µM (≈ 444 µg/mL) | 0.39 |  |  |  |  | 0.1 µM | 80% | 75%
CC(C)Oc1cc2ncc(C(N)=O)c(Nc3cccc(Cl)c3F)c2cc1N1CCN(C)CC1 | 790 µM (≈ 373 µg/mL) | 0.049 |  |  |  |  | 0.21 µM |  | 
CCOc1cc2ncc(C(N)=O)c(Nc3cccc(Cl)c3Cl)c2cc1N1CCCN(C(C)C)CC1 | 420 µM (≈ 217 µg/mL) | 0.049 |  |  |  |  | 0.02 µM | 90% | 75%
CCOc1cc2ncc(C(N)=O)c(Nc3ccc(Cl)c(Cl)c3)c2cc1N1CCN(C)CC1 | 3 µM (≈ 1.42 µg/mL) |  | 42% | 47 mL/min/kg | 3.7 L/kg | 1.2 h | 0.06 µM | 80% | 40%
CC(C)Oc1cc2ncc(C(N)=O)c(Nc3ccc(Cl)c(Cl)c3)c2cc1N1CCN(C)CC1 | 250 µM (≈ 122 µg/mL) | 0.01 |  |  |  |  | 0.12 µM |  | 
CC(C)Oc1cc2ncc(C(N)=O)c(Nc3cccc(Cl)c3Cl)c2cc1N1CCN(C)CC1 | 200 µM (≈ 97.7 µg/mL) | 0.014 |  |  |  |  | 0.05 µM | 70% | 35%
COCCOc1cc2ncc(C(N)=O)c(Nc3ccc(C)cc3F)c2cc1N1CCN(C)CC1 | 63 µM (≈ 29.5 µg/mL) | 0.16 | 100% | 33 mL/min/kg | 8.6 L/kg | 3.4 h |  | 100% | 80%
COc1cc2c(Nc3cccc(Cl)c3Cl)c(C(N)=O)cnc2cc1N1CCN(C)CC1 | 220 µM (≈ 101 µg/mL) |  |  |  |  |  | 0.17 µM |  | 
CCOc1cc2ncc(C(N)=O)c(Nc3cccc(Cl)c3Cl)c2cc1N1CCN(C(=O)CO)CC1 | 29 µM (≈ 15 µg/mL) | 0.16 | 6% | 72 mL/min/kg | 2.2 L/kg | 0.66 h | 0.09 µM |  | 
CCOc1cc2ncc(C(N)=O)c(Nc3cccc(Cl)c3Cl)c2cc1N1CCN(CCOC)CC1 | 13 µM (≈ 6.74 µg/mL) | 0.017 |  |  |  |  | 0.03 µM |  | 
CCOc1cc2ncc(C(N)=O)c(Nc3cccc(Cl)c3Cl)c2cc1N1CCN(CCO)CC1 | 67 µM (≈ 33.8 µg/mL) | 0.048 |  |  |  |  | 0.03 µM |  | 
COc1cc2ncc(C(N)=O)c(Nc3ccc(F)cc3F)c2cc1OC |  |  | 100% | 23 mL/min/kg | 0.9 L/kg | 0.6 h | 0.4 µM |  | 

Second part, led by results:

solubility [1] | fraction unbound [2] | bioavailability [3] | clearance [4] | Vd [5] | half-life [6] | Compound | Activity (NIH3T3) | inhibition in vivo at 25 mg/kg (Mus musculus [7]) | inhibition in vivo at 25 mg/kg (Mus musculus [8])
10 µM (≈ 4.58 µg/mL) | 0.071 | 54% | 24 mL/min/kg | 1.9 L/kg | 1.1 h | CCOc1cc2ncc(C(N)=O)c(Nc3cccc(Cl)c3F)c2cc1N1CCN(C)CC1 | 0.11 µM | 100% | 90%
320 µM (≈ 146 µg/mL) | 0.046 | 46% | 19 mL/min/kg | 3.6 L/kg | 2.3 h | CCOc1cc2ncc(C(N)=O)c(Nc3ccc(F)cc3F)c2cc1N1CCN(CC)CC1 | 0.17 µM |  | 
530 µM (≈ 241 µg/mL) | 0.31 | 16% | 32 mL/min/kg | 16 L/kg | 6.6 h | CCOc1cc2ncc(C(N)=O)c(Nc3ccc(F)cc3F)c2cc1N1CCCN(C)CC1 |  | 90% | 55%
54 µM (≈ 23.6 µg/mL) |  | 46% | 10 mL/min/kg | 1.8 L/kg | 2.3 h | CCOc1cc2ncc(C(N)=O)c(Nc3ccc(C)cc3F)c2cc1N1CCN(C)CC1 |  |  | 60%
720 µM (≈ 339 µg/mL) | 0.46 | 100% | 68 mL/min/kg | 18 L/kg | 3.8 h | COCCOc1cc2ncc(C(N)=O)c(Nc3ccc(F)cc3F)c2cc1N1CCN(C)CC1 |  | 100% | 70%
150 µM (≈ 70.1 µg/mL) |  | 34% | 21 mL/min/kg | 0.6 L/kg | 0.9 h | CCOc1cc2ncc(C(N)=O)c(Nc3ccc(F)cc3F)c2cc1N1CCN(C2CC2)CC1 | 0.66 µM | 70% | 10%
 | 0.034 | 55% | 53 mL/min/kg | 9.3 L/kg | 2.2 h | CCOc1cc2ncc(C(N)=O)c(Nc3ccc(F)c(Cl)c3)c2cc1N1CCN(C)CC1 | 0.13 µM | 70% | 55%
> 1000 µM |  |  |  |  |  | CCOc1cc2ncc(C(N)=O)c(Nc3ccc(F)cc3F)c2cc1N1CCN(C(C)C)CC1 | 0.17 µM | 70% | 50%
66 µM (≈ 28.9 µg/mL) |  | 88% | 28 mL/min/kg | 5.3 L/kg | 2.3 h | CCOc1cc2ncc(C(N)=O)c(Nc3cc(C)ccc3F)c2cc1N1CCN(C)CC1 | 0.09 µM | 90% | 80%
2 µM (≈ 0.885 µg/mL) | 0.089 |  |  |  |  | CCOc1cc2ncc(C(N)=O)c(Nc3ccc(F)cc3F)c2cc1N1CCC(O)CC1 |  |  | 
100 µM (≈ 48.2 µg/mL) | 0.022 |  |  |  |  | CCOc1cc2ncc(C(N)=O)c(Nc3ccc(F)cc3F)c2cc1N1CCCN(C2CC2)CC1 | 0.27 µM |  | 
64 µM (≈ 27.4 µg/mL) | 0.084 | 25% | 36 mL/min/kg | 1.1 L/kg | 0.6 h | CCOc1cc2ncc(C(N)=O)c(Nc3ccc(F)cc3F)c2cc1N1CCOCC1 | 0.48 µM |  | 
